From publication PMC8765781, “A platform of assays for the discovery of anti-Zika small-molecules with activity in a 3D-bioprinted outer-blood-retina model” (PLoS ONE, 2022)
Where two headings read alike, the source gives them in different places.

How the values were obtained:
[1] = test system: ZIKV-RLuc (Cambodian strain FSS13025); assay: microbe, parasite or virus in culture; assay type: cell-based, Zika virus
[2] = test system: wild-type ZIKV (Ugandan MR766 strain) in Vero cells; assay: ZIKV cytopathic effect (CPE) inhibition qHTS assay, CellTiter-Glo readout; assay type: cell-based, Zika virus
[3] = test system: Vero cells
[4] = Zika virus, Vero, read-out: Log AC50 (M) (converted)

Row | Structure (SMILES) | CC-v2 (curve class classification v2 of the dose response curve) [1] | Efficacy (difference between neutral response and maximum compound response) [1] | Max Resp (difference between neutral response and compound response for highest compound concentration) [1] | AC50 ([1]; Zika virus, Vero) | AC50 [1, 4] | AC50 ([2]; Zika virus, Vero, from Hill fit of the response curve, 50% of maximum activity response, 194 cherry-picked compounds, protocol name not given, read-out: AC50) | AC50 ([2]; Zika virus, Vero, potency in log units (Molar) from Hill fit of the response curve, 194 cherry-picked compounds, protocol name not given, read-out: Log AC50 (converted)) | CC-v2 (curve class classification of the dose response curve) ([2]; curve class v2 (Inglese et al. 2006)) | Efficacy ([2]; difference between neutral response and maximum compound response) | AC50 [3] | Log AC50 (M) [3] | Curve class [2] | Efficacy [2] | AC50 ([2]; Zika virus, Vero) | AC50 ([2]; Zika virus, Vero, read-out: Log AC50 (converted)) | Emax ([2]; Zika virus, Vero, read-out: Max response) | AC50 [1] | Log AC50 (M) [1]
1 | O=C1NC2CCCCN2C12CCN(CCCN1c3ccccc3CCc3ccc(Cl)cc31)CC2 (stereo not shown) [NCGC00183853-01] | -2.1 | -99.983 | -99.289 | 2.61e-05 M | 2.61e-05 M | 65.1 µM | 65.1 µM | -3 | -47.567 | 26.1 µM | -4.5827 M |  |  |  |  |  |  | 
2 | CC1=C(CO)C(=O)O[C@@H]([C@@H](C)[C@H]2CC[C@H]3[C@@H]4C[C@H]5O[C@]56[C@@H](O)C=CC(=O)[C@]6(C)[C@H]4CC[C@]23C)C1 [NCGC00180796-02] | -2.1 | -108.248 | -100.116 | 1.02e-05 M | 1.02e-05 M |  |  |  |  | 10.2 µM | -4.9908 M | -3 | -63.347 | 35.5 µM | 35.5 µM | -65.4% |  | 
3 | COc1ccc(-c2oc3cc(O)c(OC)c(O)c3c(=O)c2OC)cc1O [NCGC00385612-01] | -1.2 | -71.455 | -72.562 | 1.17e-06 M | 1.17e-06 M |  |  |  |  | 1.17 µM | -5.9327 M |  |  |  |  |  |  | 
4 | Nc1ccc(C(=O)c2cc3c(ccc4ccccc43)[nH]2)cc1 [NCGC00263233-01] | -2.1 | -115.821 | -99.398 | 2.08e-05 M | 2.08e-05 M |  |  |  |  | 20.8 µM | -4.6827 M |  |  |  |  |  |  | 
5 | CCCCCCCCCCC(C)(C)C(=O)Nc1c(OC)cc(OC)cc1OC [NCGC00092343-02] | -3 | -55.755 | -44.379 | 3.69e-05 M | 3.69e-05 M |  |  |  |  |  | -4.4327 M |  |  |  |  |  |  | 
6 | OCCN1CCN(CCCN2c3ccccc3Sc3ccc(C(F)(F)F)cc32)CC1 [NCGC00015436-11] | -3 | -75.446 | -79.581 | 2.61e-05 M | 2.61e-05 M |  |  |  |  | 26.1 µM | -4.5827 M |  |  |  |  |  |  | 
7 | Cc1ccc(C(=O)Nc2ccc(CN3CCN(C)CC3)c(C(F)(F)F)c2)cc1C#Cc1cnc2cccnn12 [NCGC00263152-01] | -1.1 | -88.579 | -98.949 | 1.85e-06 M | 1.85e-06 M |  |  |  |  | 1.85 µM | -5.7327 M |  |  |  |  |  |  | 
8 | O=C(NCc1ccccc1)c1csc(Nc2ccncn2)n1 [NCGC00187983-01] | -2.1 | -99.244 | -100.568 | 1.47e-05 M | 1.47e-05 M |  |  |  |  | 14.7 µM | -4.8327 M |  |  |  |  |  |  | 
9 | COc1ccc2c(c1)CN(C(=O)CCN1CCC(Cc3ccccc3)CC1)CCS2 [NCGC00384450-01] | -3 | -97.233 | -83.243 | 3.69e-05 M | 3.69e-05 M |  |  |  |  | 36.9 µM | -4.4327 M |  |  |  |  |  |  | 
10 | CC(NCc1ccc2c(c1)[nH]/c(=N\C(=O)c1ccc(-c3cn[nH]c3)s1)n2CC(C)(C)O)C(C)(C)C (stereo not shown) [NCGC00188382-05] | -1.1 | -97.056 | -99.599 | 1.47e-06 M | 1.47e-06 M |  |  |  |  | 1.47 µM | -5.8327 M |  |  |  |  |  |  | 
11 | C[C@@H]1C[C@H]2C3CCC4=CC(=O)C=C[C@@]4(C)[C@@]3(Cl)[C@@H](O)CC2(C)[C@@]1(OC(=O)c1ccco1)C(=O)CCl (stereo partly shown) [NCGC00164596-01] | -1.1 | -109.905 | -100.212 | 1.04e-05 M | 1.04e-05 M |  |  |  |  | 10.4 µM | -4.9827 M |  |  |  |  |  |  | 
12 | CC(C)C(=O)O[C@H]1[C@@H]2[C@H](C)C(=O)O[C@@H]2C[C@@H](C)[C@@H]2C=CC(=O)[C@]21C [NCGC00347562-02] | -3 | -106.49 | -96.985 | 2.28e-05 M | 2.28e-05 M |  |  |  |  | 22.8 µM | -4.6425 M |  |  |  |  |  |  | 
13 | CN1CCCC(CC2c3ccccc3Sc3ccccc32)C1.Cl (stereo not shown) [NCGC00273481-01] | -3 | -90.373 | -72.236 | 3.69e-05 M | 3.69e-05 M |  |  |  |  | 36.9 µM | -4.4327 M |  |  |  |  |  |  | 
14 | COC(=O)C1=C(C)NC(C)=C(C(=O)OCCN(C)Cc2ccccc2)C1c1cccc([N+](=O)[O-])c1 (stereo not shown) [NCGC00015747-03] | -3 | -68.655 | -54.296 | 3.69e-05 M | 3.69e-05 M |  |  |  |  | 36.9 µM | -4.4327 M |  |  |  |  |  |  | 
15 | CC(C)(Sc1ccc(CCN(CCCCC2CCCCC2)C(=O)NC2CCCCC2)cc1)C(=O)O [NCGC00015480-13] | -2.2 | -93.466 | -98.662 | 3.29e-05 M | 3.29e-05 M |  |  |  |  | 32.9 µM |  |  |  |  |  |  |  | 
16 | NC1(c2ccc(-c3nc4ccn5c(=O)[nH]nc5c4cc3-c3ccccc3)cc2)CCC1 [NCGC00186465-04] | -2.1 | -108.058 | -98.999 |  |  |  |  |  |  |  | -4.6827 M |  |  |  |  |  | 2.08e-05 M | -4.6827
